The target in experiment [1] is T1, human MetAP2 enzyme (Homo sapiens, UniProt P50579). As to the kind of experiment: MetAP2 enzyme assay, enzyme complexed with manganese ions. As to conditions: MetAP2 Mn pIC50, MetAP2 enzyme complexed with manganese ions; Met-AMC substrate at Km.
The target in experiment [2] is T1, human MetAP2 enzyme. As to the kind of experiment: MetAP2 enzyme assay, enzyme complexed with cobalt ions. As to conditions: MetAP2 Co pIC50, MetAP2 enzyme complexed with cobalt ions; Met-AMC substrate at Km.

What is called pIC50 is the IC50 on a negative log10 scale, so that one unit is a factor of ten. High values mean a low IC50, low ones a high IC50.

pIC50: −log10 of the molar value.

T1 sequence (P50579 whole entry): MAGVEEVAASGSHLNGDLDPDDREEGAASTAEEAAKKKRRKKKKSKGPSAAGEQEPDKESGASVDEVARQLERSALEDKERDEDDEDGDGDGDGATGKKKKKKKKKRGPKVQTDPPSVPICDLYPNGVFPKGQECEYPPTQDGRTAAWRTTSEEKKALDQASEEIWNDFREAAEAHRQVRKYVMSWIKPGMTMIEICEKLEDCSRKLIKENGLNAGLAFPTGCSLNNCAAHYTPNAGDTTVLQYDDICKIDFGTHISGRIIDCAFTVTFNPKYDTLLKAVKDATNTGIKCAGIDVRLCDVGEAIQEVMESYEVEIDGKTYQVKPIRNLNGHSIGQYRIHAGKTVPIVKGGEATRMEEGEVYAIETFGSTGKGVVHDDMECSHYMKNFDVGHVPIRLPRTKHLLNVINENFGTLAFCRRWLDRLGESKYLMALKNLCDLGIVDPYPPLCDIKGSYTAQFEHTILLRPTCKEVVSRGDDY

In the case of `O=C1COc2c(cccc2-c2cc(C(F)(F)F)cc3[nH]ncc23)N1` [Example 139, 8-(6-(trifluoromethyl)-1H-indazol-4-yl)-2H-benzo[b][1,4]oxazin-3(4H)-one], the pIC50 is 8.00 in experiment [1] and 7.40 in experiment [2].
The like results for `COc1ccc(C(=O)NCCO)cc1-c1cc(C(F)(F)F)cc2[nH]ncc12` [Example 268, N-(2-hydroxyethyl)-4-methoxy-3-(6-(trifluoromethyl)-1H-indazol-4-yl)benzamide] were, in that order, 7.80 and 7.40.
With `Cc1nn(CC(=O)NCCO)c(C)c1-c1cc(C(F)(F)F)cc2[nH]ncc12` [Example 386, 2-(3,5-dimethyl-4-(6-(trifluoromethyl)-1H-indazol-4-yl)-1H-pyrazol-1-yl)-N-(2-hydroxyethyl)acetamide], the negative logarithm of the IC50 (pIC50) in experiment [1] was 7.90; in experiment [2], 7.20.
The like results for `Cc1cc2cncn2cc1-c1cc(C(F)(F)F)cc2[nH]ncc12` [Example 388, 4-(7-methylimidazo[1,5-a]pyridin-6-yl)-6-(trifluoromethyl)-1H-indazole] were, in that order, 8.10 and 7.20.
Consider `FC(F)(F)c1cc(-c2cn[nH]c2)c2cn[nH]c2c1` [Example 23, 4-(1H-pyrazol-4-yl)-6-(trifluoromethyl)-1H-indazole], for which the pIC50 in experiment [1] was 8.20; in experiment [2] it was 7.00.
With `N#Cc1ccc2ncc(-c3cc(C(F)(F)F)cc4[nH]ncc34)n2c1` [Example 153, 3-(6-(trifluoromethyl)-1H-indazol-4-yl)imidazo[1,2-a]pyridine-6-carbonitrile], the results for the pIC50 in experiment [1] and in experiment [2] were 7.60 and 6.70, respectively.
With `FC(F)(F)c1cc(-c2ccc3[nH]cnc3c2)c2cn[nH]c2c1` [Example 17, 4-(1H-benzo[d]imidazol-5-yl)-6-(trifluoromethyl)-1H-indazole], the negative-log IC50 (pIC50) is 8.10 in experiment [1] and 7.70 in experiment [2].
The like results for `Cn1cc(C(=O)N2CCOCC2)cc(-c2cc(C(F)(F)F)cc3[nH]ncc23)c1=O` [Example 314, 1-methyl-5-(morpholine-4-carbonyl)-3-(6-(trifluoromethyl)-1H-indazol-4-yl)pyridin-2(1H)-one] were, in that order, 7.70 and 6.20.
`CS(=O)(=O)c1cccc(-c2cc(C(F)(F)F)cc3[nH]ncc23)c1` [Example 103, 4-(3-(methylsulfonyl)phenyl)-6-(trifluoromethyl)-1H-indazole]: the pIC50 was 8.20 in experiment [1] and 7.30 in experiment [2].
Take `FC(F)(F)c1cc(-c2cnc3ncccn23)c2cn[nH]c2c1` [Example 151, 3-(6-(trifluoromethyl)-1H-indazol-4-yl)imidazo[1,2-a]pyrimidine]: the pIC50 in experiment [1] is 8.20; in experiment [2] it was 6.70.
With `CC(C)(C)C(=O)Nc1ncccc1-c1cc(C(F)(F)F)cc2[nH]ncc12` [Example 73, N-(3-(6-(trifluoromethyl)-1H-indazol-4-yl)pyridin-2-yl)pivalamide], the pIC50 in experiment [1] is 7.10; in experiment [2] it was 6.70.
The like results for `Cc1ccc(S(=O)(=O)N(C)C)cc1-c1cc(C(F)(F)F)cc2[nH]ncc12` [Example 127, N,N,4-trimethyl-3-(6-(trifluoromethyl)-1H-indazol-4-yl)benzenesulfonamide] were, in that order, 7.90 and 7.80.
Consider `O=C(c1ncc(-c2cc(C(F)(F)F)cc3[nH]ncc23)cn1)N1CCOCC1` [Example 294, morpholino(5-(6-(trifluoromethyl)-1H-indazol-4-yl)pyrimidin-2-yl)methanone], for which the figures for the pIC50 in experiment [1] and in experiment [2] were 7.50 and 5.80, respectively.
Take `CN1CCN(C(=O)c2cc(-c3cc(C(F)(F)F)cc4[nH]ncc34)c[nH]c2=O)CC1` [Example 227, 3-(4-methylpiperazine-1-carbonyl)-5-(6-(trifluoromethyl)-1H-indazol-4-yl)pyridin-2(1H)-one]: the pIC50 in experiment [1] is 8.10; in experiment [2], 6.90.

(Values after patent publication US9434743B2, “Indazole derivatives” (TAKEDA PHARMACEUTICAL COMPANY LIMITED, priority 2012, dated 2016).)
